Results from paper PMC5118688 (Scientific Reports, 2016).
In brackets after ≈: the same amount, converted by molar mass. Read-outs that look alike come from different tables or passages of the source.

Experiments:
mAb4D11 = experiment: optimized mAb4D11-based dcELISA; conditions: mAb4D11-based dcELISA
Protocol: (§1) The dcELISA procedure was performed as below. First, the plate (Costar, Corning Inc., New York, USA) was coated with coating antigen (100 μL/well in 1 × PBS) for 1 h at 37 °C. Then, the wells were washed four times with PBST (1 × PBS with 0.05% (v/v) Tween-20) and blocked with 2% skim milk (200 μL/well) for 1 h at 37 °C. After washing four times, 50 μL analyte in MeOH-water solution and 50 μL mAb-HRP in PBS were added. The plate was incubated for 1 h at 37 °C and then washed four times before adding TMB solution (100 μL/well). After incubation for 15 min at 37 °C, 50 μL/well of H2SO4 (2 mol/L) was added to stop the reaction, and the absorbance was recorded at 450 nm using the Model 680 plate reader (Bio-Rad, USA).
(§2) 18 kinds of O,O-dimethyl OPs and 6 kinds of O,O-diethyl OPs were purchased from National Standards of China and used for the selectivity and sensitivity study using the optimized dcELISA procedure. […] The IC50 value and detection limit of each OP were calculated. The CR value, which was used to evaluate the selectivity of the method, was calculated using the following equation:

[1] = ref Hua et al. 11; cited from earlier work
mAb3C9 [2] = experiment: optimized chemosynthesized antigen-based dcELISA (mAb3C9 and hapten 6-OVA); conditions: for CR (%): Hapten 6-OVA, (IC50 of parathion-methyl/IC50 of pesticide) × 100; for LOD (IC10): mAb3C9, Hapten 6-OVA; for IC50 ± SD: mAb3C9, coating antigen Hapten 6-OVA
Protocol: as §1, §2

mAb3C9 [3] = experiment: mimotope-based dcELISA (mAb3C9 and M20-GST-BAD/SA-HRP competitor); type: binding, mouse; conditions: for CR (%): M20-GST-BAD, (IC50 of parathion-methyl/IC50 of pesticide) × 100; for LOD (IC10): mAb3C9, M20-GST-BAD; for IC50 ± SD: mAb3C9, competitor M20-GST-BAD
Protocol: To develop a mimotope-based dcELISA, the biotinylated mimotope fusion protein was firstly assembled with streptavidin-HRP conjugate (SA-HRP) utilized the high affinity of biotin and streptavidin. The assembly process was just mixing a certain amount of biotinylated mimotope fusion protein with SA-HRP and incubating them at 4 °C overnight before use as an HRP-labeled competitor.
An innovative mimotope-based dcELISA was developed and performed as below. […] TMB solution (100 μL/well) was added and incubated for 15 min at 37 °C.
The optimal condition for mimotope-based dcELISA was optimized as chemosynthesized antigen-based dcELISA. The selectivity and sensitivity of the developed mimotope-based dcELISA for the 24 OPs were also determined under the optimum condition.

[4] = test system: mAb against a generic hapten (3-(4-dimethoxyphosphorothioyloxy phenyl)propanoic acid); conditions: ref Liu et al. 10; cited from earlier work
[5] = ref Liang et al. 9; cited from earlier work

Row | Compound | CR (%) (mAb4D11) | IC50 (mAb4D11) [ng/mL] | LOD (mAb4D11) [ng/mL] | IC50 [1] [ng/mL] | CR (%) (mAb3C9 [2]) | LOD (IC10) (mAb3C9 [2]) [ng/mL] | IC50 ± SD (mAb3C9 [2]) [ng/mL] | CR (%) (mAb3C9 [3]) | LOD (IC10) (mAb3C9 [3]) [ng/mL] | IC50 ± SD (mAb3C9 [3]) [ng/mL] | IC50 [4] [ng/mL] | IC50 [5] [ng/mL]
1 | COP(=S)(OC)Oc1ccc(SC)c(C)c1 [Fenthion] | 303.6 | 4.8 (≈ 0.0172 µM) | 0.9 | > 100000 | 32.1 | 3.0 | 14.5 ± 1.1 (≈ 0.0521 µM) | 21.6 | 4.4 | 23.4 ± 1.7 (≈ 0.0841 µM) | 1210 (≈ 4.35 µM) | 788.9 (≈ 2.83 µM)
2 | COP(=S)(OC)Oc1ccc([N+](=O)[O-])cc1 [Parathion-methyl] | 100.0 | 14.5 (≈ 0.0551 µM) | 2.0 | 3.7 (≈ 0.0141 µM) | 100.0 | 0.9 | 4.7 ± 0.3 (≈ 0.0179 µM) | 100.0 | 0.9 | 5.1 ± 0.2 (≈ 0.0194 µM) | 580 (≈ 2.2 µM) | 438.9 (≈ 1.67 µM)
